# Test results from ChEMBL document CHEMBL3400015, “Tertiary amides of Salinomycin: A new group of antibacterial agents against Bacillus anthracis and methicillin-resistant Staphylococcus epidermidis” (Bioorg Med Chem Lett, 2015).
# Key:
# Type in all cases: functional
# [1] = tested on: Staphylococcus epidermidis; test: Bactericidal activity against methicillin-resistant Staphylococcus epidermidis isolate 454/11 after 24 hrs; conditions: isolate 454/11, 24 h, read-out: MBC99.9
# [2] = tested on: Staphylococcus epidermidis; test: Antimicrobial activity against Staphylococcus epidermidis ATCC 35984 after 18 hrs by twofold serial broth dilution method; conditions: ATCC 35984, 18 h
# [3] = tested on: Staphylococcus epidermidis; test: Bactericidal activity against methicillin-resistant Staphylococcus epidermidis isolate 458/11 after 24 hrs; conditions: isolate 458/11, 24 h, read-out: MBC99.9
# [4] = tested on: Staphylococcus epidermidis; test: Bactericidal activity against methicillin-resistant Staphylococcus epidermidis isolate 424/10 after 24 hrs; conditions: isolate 424/10, 24 h, read-out: MBC99.9
# Bacillus anthracis = test: Antimicrobial activity against Bacillus anthracis 34F2 after 18 hrs by twofold serial broth dilution method; conditions: 34F2, 18 h
# Pseudomonas aeruginosa [5] = test: Bactericidal activity against Pseudomonas aeruginosa ATCC 15442 after 24 hrs; conditions: ATCC 15442, 24 h, read-out: MBC99.9
# Pseudomonas aeruginosa [6] = test: Antimicrobial activity against Pseudomonas aeruginosa ATCC 27853 after 18 hrs by twofold serial broth dilution method; conditions: ATCC 27853, 18 h
# [7] = tested on: Staphylococcus epidermidis; test: Antimicrobial activity against methicillin-resistant Staphylococcus epidermidis isolate 424/10 after 18 hrs by twofold serial broth dilution method; conditions: isolate 424/10, 18 h
# Escherichia coli [8] = test: Antimicrobial activity against Escherichia coli ATCC 25922 after 18 hrs by twofold serial broth dilution method; conditions: ATCC 25922, 18 h
# [9] = tested on: Staphylococcus epidermidis; test: Antimicrobial activity against methicillin-resistant Staphylococcus epidermidis isolate 460/11 after 18 hrs by twofold serial broth dilution method; conditions: isolate 460/11, 18 h
# Staphylococcus aureus [10] = test: Bactericidal activity against Staphylococcus aureus ATCC 6538 after 24 hrs; conditions: ATCC 6538, 24 h, read-out: MBC99.9
# Pseudomonas aeruginosa [11] = test: Bactericidal activity against Pseudomonas aeruginosa NCTC 6749 after 24 hrs; conditions: NCTC 6749, 24 h, read-out: MBC99.9
# [12] = tested on: Staphylococcus epidermidis; test: Bactericidal activity against methicillin-resistant Staphylococcus epidermidis isolate 460/11 after 24 hrs; conditions: isolate 460/11, 24 h, read-out: MBC99.9
# [13] = tested on: Staphylococcus epidermidis; test: Antimicrobial activity against methicillin-resistant Staphylococcus epidermidis isolate 454/11 after 18 hrs by twofold serial broth dilution method; conditions: isolate 454/11, 18 h
# [14] = tested on: Staphylococcus epidermidis; test: Antimicrobial activity against methicillin-resistant Staphylococcus epidermidis isolate 459/11 after 18 hrs by twofold serial broth dilution method; conditions: isolate 459/11, 18 h
# Staphylococcus aureus [15] = test: Bactericidal activity against Staphylococcus aureus […] after 24 hrs; conditions: read-out: MBC99.9
# [16] = tested on: Staphylococcus epidermidis; test: Bactericidal activity against methicillin-resistant Staphylococcus epidermidis isolate 455/11 after 24 hrs; conditions: isolate 455/11, 24 h, read-out: MBC99.9
# Staphylococcus aureus [17] = test: Antimicrobial activity against Staphylococcus aureus NCTC 4163 after 18 hrs by twofold serial broth dilution method; conditions: NCTC 4163, 18 h
# Pseudomonas aeruginosa [18] = test: Antimicrobial activity against Pseudomonas aeruginosa NCTC 6749 after 18 hrs by twofold serial broth dilution method; conditions: NCTC 6749, 18 h
# [19] = tested on: Staphylococcus epidermidis; test: Bactericidal activity against methicillin-resistant Staphylococcus epidermidis isolate 470/11 after 24 hrs; conditions: isolate 470/11, 24 h, read-out: MBC99.9
# [20] = tested on: Staphylococcus epidermidis; test: Antimicrobial activity against methicillin-resistant Staphylococcus epidermidis isolate 409/10 after 18 hrs by twofold serial broth dilution method; conditions: isolate 409/10, 18 h
# [21] = tested on: Staphylococcus epidermidis; test: Antimicrobial activity against methicillin-resistant Staphylococcus epidermidis isolate 469/11 after 18 hrs by twofold serial broth dilution method; conditions: isolate 469/11, 18 h
# [22] = tested on: Staphylococcus epidermidis; test: Antimicrobial activity against methicillin-resistant Staphylococcus epidermidis isolate 422/10 after 18 hrs by twofold serial broth dilution method; conditions: isolate 422/10, 18 h
# Escherichia coli [23] = test: Antimicrobial activity against Escherichia coli NCTC 8196 after 18 hrs by twofold serial broth dilution method; conditions: NCTC 8196, 18 h
# Staphylococcus aureus [24] = test: Bactericidal activity against Staphylococcus aureus NCTC 4163 after 24 hrs; conditions: NCTC 4163, 24 h, read-out: MBC99.9
# [25] = tested on: Staphylococcus epidermidis; test: Bactericidal activity against Staphylococcus epidermidis ATCC 35984 after 24 hrs; conditions: ATCC 35984, 24 h, read-out: MBC99.9
# Escherichia coli [26] = test: Bactericidal activity against Escherichia coli ATCC 10538 after 24 hrs; conditions: ATCC 10538, 24 h, read-out: MBC99.9
# [27] = tested on: Staphylococcus epidermidis; test: Bactericidal activity against methicillin-resistant Staphylococcus epidermidis isolate 407/10 after 24 hrs; conditions: isolate 407/10, 24 h, read-out: MBC99.9
# [28] = tested on: Staphylococcus epidermidis; test: Bactericidal activity against methicillin-resistant Staphylococcus epidermidis isolate 457/11 after 24 hrs; conditions: isolate 457/11, 24 h, read-out: MBC99.9
# Staphylococcus aureus [29] = test: Bactericidal activity against Staphylococcus aureus ATCC 25923 after 24 hrs; conditions: ATCC 25923, 24 h, read-out: MBC99.9
# Pseudomonas aeruginosa [30] = test: Bactericidal activity against Pseudomonas aeruginosa ATCC 27853 after 24 hrs; conditions: ATCC 27853, 24 h, read-out: MBC99.9
# [31] = tested on: Staphylococcus epidermidis; test: Bactericidal activity against methicillin-resistant Staphylococcus epidermidis isolate 459/11 after 24 hrs; conditions: isolate 459/11, 24 h, read-out: MBC99.9
# [32] = tested on: Staphylococcus epidermidis; test: Bactericidal activity against methicillin-resistant Staphylococcus epidermidis isolate 409/10 after 24 hrs; conditions: isolate 409/10, 24 h, read-out: MBC99.9
# Escherichia coli [33] = test: Antimicrobial activity against Escherichia coli ATCC 10538 after 18 hrs by twofold serial broth dilution method; conditions: ATCC 10538, 18 h
# [34] = tested on: Staphylococcus epidermidis; test: Bactericidal activity against methicillin-resistant Staphylococcus epidermidis isolate 403/10 after 24 hrs; conditions: isolate 403/10, 24 h, read-out: MBC99.9
# [35] = tested on: Staphylococcus epidermidis; test: Antimicrobial activity against methicillin-resistant Staphylococcus epidermidis isolate 455/11 after 18 hrs by twofold serial broth dilution method; conditions: isolate 455/11, 18 h
# Staphylococcus aureus [36] = test: Antimicrobial activity against Staphylococcus aureus […] after 18 hrs by twofold serial broth dilution method
# [37] = tested on: Staphylococcus epidermidis; test: Antimicrobial activity against methicillin-resistant Staphylococcus epidermidis isolate 457/11 after 18 hrs by twofold serial broth dilution method; conditions: isolate 457/11, 18 h
# [38] = tested on: Staphylococcus epidermidis; test: Antimicrobial activity against methicillin-resistant Staphylococcus epidermidis isolate 458/11 after 18 hrs by twofold serial broth dilution method; conditions: isolate 458/11, 18 h
# [39] = tested on: Staphylococcus epidermidis; test: Antimicrobial activity against methicillin-resistant Staphylococcus epidermidis isolate 407/10 after 18 hrs by twofold serial broth dilution method; conditions: isolate 407/10, 18 h
# Staphylococcus aureus [40] = test: Antimicrobial activity against Staphylococcus aureus ATCC 25923 after 18 hrs by twofold serial broth dilution method; conditions: ATCC 25923, 18 h
compound,measurement,setting,value
CC[C@@H](C(=O)[C@@H](C)[C@@H](O)[C@H](C)[C@@H]1O[C@@H]([C@@H](CC)C(=O)N2CCOCC2)CC[C@@H]1C)[C@H]1O[C@]2(C=C[C@@H](O)[C@]3(CC[C@@](C)([C@H]4CC[C@](O)(CC)[C@H](C)O4)O3)O2)[C@H](C)C[C@@H]1C,MBC,[1],> 256 mg/L
same,MIC,[2],128 mg/L
same,MBC,[3],> 256 mg/L
same,MBC,[4],> 256 mg/L
same,MIC,Bacillus anthracis,128 mg/L
same,MBC,Pseudomonas aeruginosa [5],> 256 mg/L
same,MIC,Pseudomonas aeruginosa [6],256 mg/L
same,MIC,[7],256 mg/L
same,MIC,Escherichia coli [8],256 mg/L
same,MIC,[9],256 mg/L
same,MBC,Staphylococcus aureus [10],> 256 mg/L
same,MBC,Pseudomonas aeruginosa [11],> 256 mg/L
same,MBC,[12],> 256 mg/L
same,MIC,[13],128 mg/L
same,MIC,[14],128 mg/L
same,MBC,Staphylococcus aureus [15],> 256 mg/L
same,MBC,[16],> 256 mg/L
same,MIC,Staphylococcus aureus [17],256 mg/L
same,MIC,Pseudomonas aeruginosa [18],128 mg/L
same,MBC,[19],> 256 mg/L
same,MIC,[20],256 mg/L
same,MIC,[21],> 256 mg/L
same,MIC,[22],256 mg/L
same,MIC,Escherichia coli [23],256 mg/L
same,MBC,Staphylococcus aureus [24],> 256 mg/L
same,MBC,[25],> 256 mg/L
same,MBC,Escherichia coli [26],> 256 mg/L
same,MBC,[27],> 256 mg/L
same,MBC,[28],> 256 mg/L
same,MBC,Staphylococcus aureus [29],> 256 mg/L
same,MBC,Pseudomonas aeruginosa [30],> 256 mg/L
same,MBC,[31],> 256 mg/L
same,MBC,[32],> 256 mg/L
same,MIC,Escherichia coli [33],256 mg/L
same,MBC,[34],> 256 mg/L
same,MIC,[35],256 mg/L
same,MIC,Staphylococcus aureus [36],256 mg/L
same,MIC,[37],256 mg/L
same,MIC,[38],256 mg/L
same,MIC,[39],> 256 mg/L
same,MIC,Staphylococcus aureus [40],128 mg/L
O=C(O)c1cn(C2CC2)c2cc(N3CCNCC3)c(F)cc2c1=O [CIPROFLOXACIN],MBC,[1],0.25 mg/L
same,MIC,[2],0.125 mg/L
same,MBC,[3],> 256 mg/L
same,MBC,[4],256 mg/L
same,MBC,Pseudomonas aeruginosa [5],0.25 mg/L
same,MIC,[7],8 mg/L
same,MIC,[9],0.125 mg/L
same,MBC,Pseudomonas aeruginosa [11],0.125 mg/L
same,MBC,[12],0.5 mg/L
same,MIC,[13],0.0625 mg/L
same,MIC,[14],32 mg/L
same,MBC,Staphylococcus aureus [15],2 mg/L
same,MBC,[16],> 256 mg/L
same,MIC,Staphylococcus aureus [17],0.25 mg/L
same,MIC,Pseudomonas aeruginosa [18],0.0625 mg/L
same,MBC,[19],0.5 mg/L
same,MIC,[20],2 mg/L
same,MIC,[21],8 mg/L
same,MIC,[22],2 mg/L
same,MBC,Staphylococcus aureus [24],0.5 mg/L
same,MBC,[25],0.5 mg/L
same,MBC,Escherichia coli [26],0.0016 mg/L
same,MBC,[27],> 256 mg/L
same,MBC,[28],> 256 mg/L
same,MBC,Staphylococcus aureus [29],2 mg/L
same,MBC,Pseudomonas aeruginosa [30],0.25 mg/L
same,MBC,[31],> 256 mg/L
same,MBC,[32],64 mg/L
same,MBC,[34],128 mg/L
same,MIC,[35],32 mg/L
same,MIC,Staphylococcus aureus [36],0.5 mg/L
same,MIC,[37],32 mg/L
same,MIC,[38],32 mg/L
same,MIC,[39],64 mg/L
same,MIC,Staphylococcus aureus [40],0.5 mg/L
